In patent US9199962B2, “Substituted azaheterocycles for the treatment of cancer” (Merck Patent GmbH, priority 2011, dated 2015):

Molecular target: T1, GST-FAK (N-terminal GST fusion with truncated human FAK (376-1052 (end) amino acids)) (Homo sapiens, UniProt Q05397)
T1 construct: truncated human FAK (376-1052 (end) amino acids)
Assay: Biochemical enzyme assay for FAK activity (Caliper LC3000 mobility shift)
Settings: Table 5; 100 uM ATP; read-out: FAK IC50
Summary of the method: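 Inhibitor dose series in DMSO were incubated 90 min at 25 °C with truncated GST-tagged human FAK (0.067 ng/µl) and FITC-labelled peptide substrate (1 µM), with ATP at 100 µM and FERM peptide at 1 mM (pH 7.5 HEPES). After EDTA quench, phosphorylated and unphosphorylated peptides were resolved electrophoretically. Percent conversion was fitted for IC50.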

T1 sequence (Q05397 376-1052): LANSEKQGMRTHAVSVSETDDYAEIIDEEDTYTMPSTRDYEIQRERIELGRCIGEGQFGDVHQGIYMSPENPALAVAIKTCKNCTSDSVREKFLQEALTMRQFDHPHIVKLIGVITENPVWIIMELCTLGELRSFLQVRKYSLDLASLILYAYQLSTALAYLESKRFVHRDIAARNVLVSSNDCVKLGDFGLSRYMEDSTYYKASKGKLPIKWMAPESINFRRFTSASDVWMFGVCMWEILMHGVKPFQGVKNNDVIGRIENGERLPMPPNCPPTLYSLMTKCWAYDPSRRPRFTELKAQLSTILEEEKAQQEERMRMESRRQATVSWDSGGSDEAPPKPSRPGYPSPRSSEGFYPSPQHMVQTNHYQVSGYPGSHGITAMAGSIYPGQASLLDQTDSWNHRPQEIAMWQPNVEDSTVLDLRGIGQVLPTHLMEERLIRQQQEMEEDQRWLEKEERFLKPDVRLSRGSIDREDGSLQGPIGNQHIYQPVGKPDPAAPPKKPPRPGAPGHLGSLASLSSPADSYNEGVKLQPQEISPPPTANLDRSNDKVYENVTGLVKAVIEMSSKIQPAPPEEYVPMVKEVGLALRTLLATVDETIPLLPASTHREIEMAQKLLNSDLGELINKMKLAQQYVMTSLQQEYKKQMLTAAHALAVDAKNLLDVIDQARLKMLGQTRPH

IC50 [nM] | SMILES
1000 to 10000 | FC(F)(F)c1cncc(-c2nccc(Nc3cn[nH]c3)n2)c1 [Compound 239, (1H-Pyrazol-4-yl)-[2-(5-trifluoromethyl-pyridin-3-yl)-pyrimidin-4-yl]-amine]
> 10000 | CS(=O)(=O)Nc1cccc(-c2nc(NCc3ccc(F)cc3F)c3ncn(C4CCCCO4)c3n2)c1 (stereo not shown) [Compound 242, N-{3-[6-(2,4-Difluoro-benzylamino)-9-(tetrahydro-pyran-2-yl)-9H-purin-2-yl]-phenyl}-methanesulfonamide]
> 10000 | CCOC(=O)c1ccccc1Nc1ccnc(-c2cncc(C(F)(F)F)c2)n1 [Compound 250, 2-[2-(5-Trifluoromethyl-pyridin-3-yl)-pyrimidin-4-ylamino]-benzoic acid ethyl ester]
1000 to 10000 | CN(c1ncccc1CNc1nccc(-c2cncc(C(F)(F)F)c2)n1)S(C)(=O)=O [Compound 251, N-Methyl-N-(3-{[4-(5-trifluoromethyl-pyridin-3-yl)-pyrimidin-2-ylamino]-methyl}-pyridin-2-yl)-methanesulfonamide]
1000 to 10000 | Fc1ccc(CNc2cc(-c3cncc(C(F)(F)F)c3)ncn2)c(C(F)(F)F)c1 [Compound 252, (4-Fluoro-2-trifluoromethyl-benzyl)-[6-(5-trifluoromethyl-pyridin-3-yl)-pyrimidin-4-yl]-amine]
100 to 1000 | CNC(=O)C1(NC(=O)c2cc(NCc3ccc(F)cc3F)nc(-c3cncc(C(F)(F)F)c3)n2)CC1 [Compound 262, 6-(2,4-Difluoro-benzylamino)-2-(5-trifluoromethyl-pyridin-3-yl)-pyrimidine-4-carboxylic acid (1-methylcarbamoyl-cyclopropyl)-amide]
< 100 | CC(NC(=O)c1cc(NCc2ccc(F)cc2F)nc(-c2cncc(C(F)(F)F)c2)n1)C(N)=O (stereo not shown) [Compound 263, 6-(2,4-Difluoro-benzylamino)-2-(5-trifluoromethyl-pyridin-3-yl)-pyrimidine-4-carboxylic acid (1-carbamoyl-ethyl)-amide]
1000 to 10000 | CN(c1ncccc1CNc1ccnc(-c2cncc(C(F)(F)F)c2)n1)S(C)(=O)=O [Compound 265, N-Methyl-N-(3-{[2-(5-trifluoromethyl-pyridin-3-yl)-pyrimidin-4-ylamino]-methyl}-pyridin-2-yl)-methanesulfonamide]
1000 to 10000 | Fc1ccc(CNc2cc(-c3cncc(C(F)(F)F)c3)nc(-c3cncc(C(F)(F)F)c3)n2)c(F)c1 [Compound 266, [2,6-Bis-(5-trifluoromethyl-pyridin-3-yl)-pyrimidin-4-yl]-(2,4-difluoro-benzyl)-amine]
100 to 1000 | CC(Nc1ccnc(-c2cncc(C(F)(F)F)c2)n1)c1ccccc1F (stereo not shown) [Compound 267, [1-(2-Fluoro-phenyl)-ethyl]-[2-(5-trifluoromethyl-pyridin-3-yl)-pyrimidin-4-yl]-amine]
> 10000 | CNC(=O)C(Nc1ccnc(-c2cncc(C(F)(F)F)c2)n1)c1ccc(O)cc1 (stereo not shown) [Compound 269, 2-(4-Hydroxy-phenyl)-N-methyl-2-[2-(5-trifluoromethyl-pyridin-3-yl)-pyrimidin-4-ylamino]-acetamide]

More lines, now with the values behind:

SMILES | IC50 [nM]
CS(=O)(=O)Nc1cccc(-c2nc(NCc3ccc(F)cc3F)c3nc[nH]c3n2)c1 [Compound 236, N-{3-[6-(2,4-Difluoro-benzylamino)-9H-purin-2-yl]-phenyl}-methanesulfonamide] | > 10000
Fc1ccc(CNc2nc(-c3cncc(C(F)(F)F)c3)nc3[nH]cnc23)c(F)c1 [Compound 237, (2,4-Difluoro-benzyl)-[2-(5-trifluoromethyl-pyridin-3-yl)-9H-purin-6-yl]-amine] | 100 to 1000
FC(F)(F)c1cncc(-c2nccc(NCc3cccnc3)n2)c1 [Compound 238, Pyridin-3-ylmethyl-[2-(5-trifluoromethyl-pyridin-3-yl)-pyrimidin-4-yl]-amine] | 100 to 1000
Fc1ccc(CNc2ccnc(-c3cccc(C(F)(F)F)c3)n2)c(F)c1 [Compound 240, (2,4-Difluoro-benzyl)-[2-(3-trifluoromethyl-phenyl)-pyrimidin-4-yl]-amine] | > 10000
CS(=O)(=O)Nc1cccc(-c2nccc(NCc3ccc(F)cc3F)n2)c1 [Compound 241, N-{3-[4-(2,4-Difluoro-benzylamino)-pyrimidin-2-yl]-phenyl}-methanesulfonamide] | > 10000
Fc1ccc(CNc2nc(-c3cncc(C(F)(F)F)c3)nc3c2ncn3C2CCCCO2)c(F)c1 (stereo not shown) [Compound 243, (2,4-Difluoro-benzyl)-[9-(tetrahydro-pyran-2-yl)-2-(5-trifluoromethyl-pyridin-3-yl)-9H-purin-6-yl]-amine] | 100 to 1000
Fc1cc(Cl)ccc1CNc1nccc(-c2cncc(C(F)(F)F)c2)n1 [Compound 244, (4-Chloro-2-fluoro-benzyl)-[4-(5-trifluoromethyl-pyridin-3-yl)-pyrimidin-2-yl]-amine] | 100 to 1000
CS(=O)(=O)Nc1cccc(-c2nccc(NCc3ccc(F)cc3C(F)(F)F)n2)c1 [Compound 245, N-{3-[4-(4-Fluoro-2-trifluoromethyl-benzylamino)-pyrimidin-2-yl]-phenyl}-methanesulfonamide] | > 10000
Cn1cc(NC(=O)c2cc(NCc3ccc(F)cc3F)nc(-c3cncc(C(F)(F)F)c3)n2)cn1 [Compound 246, 6-(2,4-Difluoro-benzylamino)-2-(5-trifluoromethyl-pyridin-3-yl)-pyrimidine-4-carboxylic acid (1-methyl-1H-pyrazol-4-yl)-amide] | 100 to 1000
Fc1ccc(CNc2nccc(-c3cncc(C(F)(F)F)c3)n2)c(C(F)(F)F)c1 [Compound 247, (4-Fluoro-2-trifluoromethyl-benzyl)-[4-(5-trifluoromethyl-pyridin-3-yl)-pyrimidin-2-yl]-amine] | < 100
Fc1ccc(CNc2nccc(-c3cncc(C(F)(F)F)c3)n2)c(F)c1 [Compound 248, (2,4-Difluoro-benzyl)-[4-(5-trifluoromethyl-pyridin-3-yl)-pyrimidin-2-yl]-amine] | < 100
CS(=O)(=O)N1CCOC(CNc2ccnc(-c3cncc(C(F)(F)F)c3)n2)C1 (stereo not shown) [Compound 249, (4-Methanesulfonyl-morpholin-2-ylmethyl)-[2-(5-trifluoromethyl-pyridin-3-yl)-pyrimidin-4-yl]-amine] | 1000 to 10000
Fc1cc(Cl)ccc1CNc1cc(-c2cncc(C(F)(F)F)c2)ncn1 [Compound 253, (4-Chloro-2-fluoro-benzyl)-[6-(5-trifluoromethyl-pyridin-3-yl)-pyrimidin-4-yl]-amine] | 1000 to 10000
Fc1ccc(CNc2cc(-c3cncc(C(F)(F)F)c3)ncn2)c(F)c1 [Compound 254, (2,4-Difluoro-benzyl)-[6-(5-trifluoromethyl-pyridin-3-yl)-pyrimidin-4-yl]-amine] | > 10000
CN(C)C(=O)c1ccccc1Nc1ccnc(-c2cncc(C(F)(F)F)c2)n1 [Compound 255, N,N-Dimethyl-2-[2-(5-trifluoromethyl-pyridin-3-yl)-pyrimidin-4-ylamino]-benzamide] | > 10000
CNC(=O)c1ccccc1Nc1ccnc(-c2cncc(C(F)(F)F)c2)n1 [Compound 256, N-Methyl-2-[2-(5-trifluoromethyl-pyridin-3-yl)-pyrimidin-4-ylamino]-benzamide] | > 10000
Cn1cc(-c2cc(NCc3ccc(F)cc3F)nc(-c3cncc(C(F)(F)F)c3)n2)cn1 [Compound 257, (2,4-Difluoro-benzyl)-[6-(1-methyl-1H-pyrazol-4-yl)-2-(5-trifluoromethyl-pyridin-3-yl)-pyrimidin-4-yl]-amine] | 100 to 1000
Cn1cc(-c2cc(NCc3ccc(F)cc3F)nc(-c3cnn(C)c3)n2)cn1 [Compound 258, [2,6-Bis-(1-methyl-1H-pyrazol-4-yl)-pyrimidin-4-yl]-(2,4-difluoro-benzyl)-amine] | 1000 to 10000
CN1CCN(C(=O)c2cc(NCc3ccc(F)cc3F)nc(-c3cncc(C(F)(F)F)c3)n2)CC1 [Compound 259, [6-(2,4-Difluoro-benzylamino)-2-(5-trifluoromethyl-pyridin-3-yl)-pyrimidin-4-yl]-(4-methyl-piperazin-1-yl)-methanone] | 100 to 1000
O=C(c1cc(NCc2ccc(F)cc2F)nc(-c2cncc(C(F)(F)F)c2)n1)N1CCOCC1 [Compound 260, [6-(2,4-Difluoro-benzylamino)-2-(5-trifluoromethyl-pyridin-3-yl)-pyrimidin-4-yl]-morpholin-4-yl-methanone] | < 100
O=C(Nc1cccnc1)c1cc(NCc2ccc(F)cc2F)nc(-c2cncc(C(F)(F)F)c2)n1 [Compound 261, 6-(2,4-Difluoro-benzylamino)-2-(5-trifluoromethyl-pyridin-3-yl)-pyrimidine-4-carboxylic acid pyridin-3-ylamide] | 100 to 1000
CN(C)C(=O)c1cc(NCc2ccc(F)cc2F)nc(-c2cncc(C(F)(F)F)c2)n1 [Compound 264, 6-(2,4-Difluoro-benzylamino)-2-(5-trifluoromethyl-pyridin-3-yl)-pyrimidine-4-carboxylic acid dimethylamide] | < 100
CNC(=O)C(Nc1ccnc(-c2cncc(C(F)(F)F)c2)n1)c1ccccc1 (stereo not shown) [Compound 268, N-Methyl-2-phenyl-2-[2-(5-trifluoromethyl-pyridin-3-yl)-pyrimidin-4-ylamino]-acetamide] | 1000 to 10000
C[C@@H](Nc1ccnc(-c2cncc(C(F)(F)F)c2)n1)c1ccc(F)cc1 [Compound 270, [(R)-1-(4-Fluoro-phenyl)-ethyl]-[2-(5-trifluoromethyl-pyridin-3-yl)-pyrimidin-4-yl]-amine] | 100 to 1000
OC[C@H](Nc1ccnc(-c2cncc(C(F)(F)F)c2)n1)c1ccccc1 [Compound 271, (R)-2-Phenyl-2-[2-(5-trifluoromethyl-pyridin-3-yl)-pyrimidin-4-ylamino]-ethanol] | 100 to 1000
O=C(O)c1cc(NCc2ccc(F)cc2F)nc(-c2cncc(C(F)(F)F)c2)n1 [Compound 272, 6-(2,4-Difluoro-benzylamino)-2-(5-trifluoromethyl-pyridin-3-yl)-pyrimidine-4-carboxylic acid] | 100 to 1000
